Test results taken from PubChem BioAssay (NCI).
Values joined by “and” are separate entries in the source; they are usually repeats but may differ in a detail not shown here. Identical values can stand only once.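 In this assay, cells in 96-well plates receive the compound at five concentrations for 48 hours. Endpoints are linearly interpolated between the surrounding concentrations. GI50 is the concentration that inhibits growth by half. TGI denotes the concentration required for complete inhibition of growth.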

How the values were obtained:
Assay in all cases: NCI-60 cell line screen, 48 h
[1] = test system: K-562 leukemia
[2] = test system: SF-268 CNS
[3] = test system: A498 renal
[4] = test system: OVCAR-4 ovarian
[5] = test system: NCI-H23 lung
[6] = test system: BT-549 breast
[7] = test system: SF-295 CNS
[8] = test system: A549 NSCLC
[9] = test system: HOP-92 NSCLC
[10] = test system: KM12 colon

Structure (SMILES) | GI50 [1] | TGI [1] | GI50 [2] | TGI [2] | GI50 [3] | TGI [3] | GI50 [4] | TGI [4] | GI50 [5] | TGI [5] | GI50 [6] | TGI [6] | GI50 [7] | TGI [7] | GI50 [8] | TGI [8] | GI50 [9] | TGI [9] | GI50 [10] | TGI [10]
Cc1cc2c3ccccc3ccc2[n+]2ccccc12 | 4.32 µM | 32.8 µM | 0.839 µM | 3.92 µM | 5.43 µM | > 100 µM | 2.88 µM | 14.8 µM | 2.57 µM | 19.3 µM | 1.4 µM | 7.77 µM | 2.29 µM | 12.7 µM | 0.628 µM | > 76.9 µM | 2.69 µM | 27.4 µM | 1.43 µM | 11.6 µM
NC(CSc1nc2ccccn2c1[N+](=O)[O-])C(=O)O (configuration not stated) | – | > 100 µM | – | > 100 µM | – | > 100 µM | – | > 100 µM | – | > 100 µM | – | > 100 µM | – | > 100 µM | – | > 100 µM | – | > 100 µM | – | > 100 µM
O=c1oc2ccc(Cl)cc2c(=O)n1-c1cc(C(F)(F)F)cc(C(F)(F)F)c1 | 0.211 µM | > 38 µM | 0.262 µM | 5.5 µM | 0.0531 µM | 0.311 µM | 0.292 µM | 29.2 µM | 0.289 µM | 1.11 µM | 0.258 µM | 0.86 µM | 0.206 µM | 0.504 µM | 0.339 µM | 13.1 µM | 0.112 µM | 0.479 µM | 0.342 µM | 1.32 µM
COC(=O)c1ccc2c(c1)C(=O)c1c-2n(CCCN)c(=O)c2cc([N+](=O)[O-])ccc12 | 0.0206 µM | 2.02 µM | < 0.0177 µM | 1.4 µM | 0.116 µM | 1.44 µM | – | 0.647 µM | < 0.0318 µM | 1.28 µM | 0.265 µM | 1.77 µM | < 0.01 µM | – | < 0.03 µM | 0.894 µM | 0.301 µM | 1.9 µM | 0.0675 µM | 0.94 µM
Nc1c(C(=O)c2cccc(C#CCN3CCOCC3)c2)cnn1-c1ccc(F)cc1 | 7.91 µM | > 25 µM | > 25 µM | > 25 µM | 11.1 µM | > 25 µM | > 25 µM | > 25 µM | > 25 µM | > 25 µM | > 25 µM | > 25 µM | > 6.3 µM | > 25 µM | > 16.6 µM | > 25 µM | > 13 µM | > 25 µM | 8.29 µM | > 25 µM
CC1(C)CC(OCCCC[P+](c2ccccc2)(c2ccccc2)c2ccccc2)CC(C)(C)N1O | 0.186 µM | 18.1 µM | 0.412 µM | 1.88 µM | 0.644 µM | 3.89 µM | 0.32 µM | 4.32 µM | 0.254 µM | 1.95 µM | 0.274 µM | 1.04 µM | 0.337 µM | 1.39 µM | 0.37 µM | 11.5 µM | 0.199 µM | 0.903 µM | 0.284 µM | 0.966 µM
O=C(O)CCCSc1nc2ccccc2s1 | – | > 100 µM | – | > 100 µM | – | > 100 µM | – | > 100 µM | – | > 100 µM | – | > 100 µM | – | > 100 µM | – | > 100 µM | – | > 100 µM | – | > 100 µM
Nc1ccn(C2CC(O)C(CO)O2)c(=O)n1 (configuration not stated) | > 5000 µM | > 5000 µM | > 5000 µM | > 5000 µM | > 5000 µM | > 5000 µM | > 5000 µM | > 5000 µM | > 5000 µM | > 5000 µM | > 5000 µM | > 5000 µM | > 5000 µM | > 5000 µM | > 5000 µM | > 5000 µM | > 5000 µM | > 5000 µM | > 5000 µM | > 5000 µM
CCCCCCCCCCCC[n+]1ccccc1 | 0.415 µM | 11.4 µM | 1.58 µM | 5.67 µM | 1.57 µM | 7.48 µM | 0.515 µM | 14.5 µM | 0.488 µM | 5.67 µM | 1.01 µM | 3.03 µM | 1.39 µM | 4.1 µM | 2.02 µM | 5.16 µM | 0.958 µM | 3.1 µM | 1.12 µM | 2.87 µM
CC1(C)CC(=O)c2c(ccc(C(=O)C[C@H](N)CO)c2N)O1 | 2.27 µM and 0.251 µM | 17.5 µM and > 33.3 µM | 5.03 µM and 0.594 µM | 17.5 µM and > 33.3 µM | 2.86 µM and 6.73 µM | 17.5 µM and > 33.3 µM | > 33.3 µM | > 33.3 µM | 6.42 µM and 0.733 µM | 17.5 µM and > 33.3 µM | 6.44 µM and 2.87 µM | 17.5 µM and 25.4 µM | 5.66 µM and 3.65 µM | 17.5 µM and > 33.3 µM | 7 µM and 7.1 µM | 17.5 µM and > 33.3 µM | 7.04 µM | 17.5 µM | 1.23 µM and 0.189 µM | 17.5 µM and > 33.3 µM
CN1CCN(Cc2ccc(NC(=O)c3nc4ccc5[nH]ncc5c4c4c3CCC4)cc2C(F)(F)F)CC1 | 0.978 µM | 2.39 µM | 7.97 µM | 16.5 µM | 6.62 µM | 13.4 µM | 0.911 µM | 1.98 µM | 1.07 µM | 3.22 µM | 7.61 µM | 14.9 µM | 6.97 µM | 13.8 µM | 0.92 µM | 1.83 µM | 3.53 µM | 10.6 µM | 0.957 µM | 1.91 µM
Cc1ncc(C(=O)Nc2ccc(CN3CCN(C)CC3)c(C(F)(F)F)c2)cc1C#Cc1cnc(N)c2ncccc12 | – | – | 0.417 µM | 3 µM | 0.228 µM | 2.38 µM | – | – | 0.841 µM | 3.3 µM | 1.65 µM | 18.9 µM | 1.26 µM | 10.6 µM | 0.391 µM | 2.69 µM | 0.129 µM | 1.66 µM | – | 1.33 µM
CCN(C(=O)CCl)C(C)(C)C(SSSC(c1ccc(Cl)cc1)C(C)(C)N(CC)C(=O)CCl)c1ccc(Cl)cc1 (configuration not stated) | 1.71 µM | 3.59 µM | 10.5 µM | 23.9 µM | 1.9 µM | 7.42 µM | 5.04 µM | 19.6 µM | – | – | 10.3 µM | 23 µM | 2.99 µM | 8.93 µM | 15 µM | 31.1 µM | 1.29 µM | 8.6 µM | 10.3 µM | 23 µM
ClC1=NC(Cl)C(Cl)=N/C1=N\c1ncn[nH]1 (configuration not stated) | – | – | 2.24 µM | 5.22 µM | 17.8 µM | 33.4 µM | 1.89 µM | 3.61 µM | – | – | 2.45 µM | 5.42 µM | 13.4 µM | 28.5 µM | 17.1 µM | 34.4 µM | 1.59 µM | 3.1 µM | 2.27 µM | 4.79 µM
N#CSCc1c(Cl)cccc1Cl | 0.359 µM | 16.3 µM | 4.9 µM | > 65.5 µM | 4.76 µM | 19.6 µM | 5.82 µM | > 100 µM | 5.41 µM | > 100 µM | 2.31 µM | 7.48 µM | 16.2 µM | > 91.4 µM | 3.31 µM | > 100 µM | 1.18 µM | > 30 µM | – | –
O=C(NC(=S)NNC(=S)NNc1ccccc1)c1ccccc1 | 1.13 µM | > 100 µM | 8.55 µM | > 100 µM | 37.5 µM | > 100 µM | 11 µM | > 100 µM | – | – | 11.3 µM | > 100 µM | 4.19 µM | > 100 µM | 8.58 µM | > 100 µM | – | – | 7.09 µM | > 100 µM
C[C@]12CCC3c4ccc(O)cc4CCC3C1Cc1ccc(O)cc12 (some centres not stated) | 0.794 µM | 11.2 µM | 11.4 µM | 44.2 µM | 6.18 µM | 19.7 µM | 15.3 µM | 92.7 µM | – | – | 6.57 µM | 23.4 µM | 12.8 µM | 34.2 µM | 13 µM | 38.4 µM | 12.7 µM | 27.9 µM | 3.4 µM | 20.6 µM
CC1=CC2=C(C(N)=O)C(=O)OC2(C)C(c2ccccc2)C1 (configuration not stated) | – | > 100 µM | – | > 100 µM | – | > 100 µM | – | > 100 µM | – | – | – | > 100 µM | – | > 100 µM | – | > 100 µM | – | > 100 µM | – | > 100 µM
O=C(OCC1OC(OC(=O)c2cc(O)c(O)c(OC(=O)c3cc(O)c(O)c(O)c3)c2)C(OC(=O)c2cc(O)c(O)c(OC(=O)c3cc(O)c(O)c(O)c3)c2)C(OC(=O)c2cc(O)c(O)c(OC(=O)c3cc(O)c(O)c(O)c3)c2)C1OC(=O)c1cc(O)c(O)c(OC(=O)c2cc(O)c(O)c(O)c2)c1)c1cc(O)c(O)c(OC(=O)c2cc(O)c(O)c(O)c2)c1 (configuration not stated) | 25.3 µM | > 50 µM | 7.21 µM | 31.3 µM | – | – | 35.2 µM | > 50 µM | 18.9 µM | > 50 µM | 12.1 µM | 35.9 µM | 8.65 µM | 22.9 µM | 20.7 µM | > 50 µM | 43.9 µM | > 50 µM | 7.23 µM | 27.1 µM
CO/N=C(/COc1c(-c2ccccc2)oc2ccccc2c1=O)c1ccc(OC)cc1 | 42.5 µM | > 100 µM | – | – | 32.9 µM | > 100 µM | 81.4 µM | > 100 µM | > 100 µM | > 100 µM | > 100 µM | > 100 µM | > 100 µM | > 100 µM | > 100 µM | > 100 µM | – | – | 56.1 µM | > 100 µM
